According to US11787785B2 (NOVARTIS AG, priority 2021, dated 2023):

Molecular target: T1, WIZ protein (HiBit-WIZ fusion protein) (Homo sapiens, UniProt O95785+Q96SW2)
T1 construct: expressed in transfected cells
Test: Quantification of WIZ protein levels in HiBit tag fusion protein assay (WIZ HiBit assay in 293T cells)
Type: cell-based
Parameters: remaining activity / Dmax: dose or concentration left out as unconfirmed
Conditions: for Dmax at 25 µM: 100 − Amax; for Dmax at 25 µM / remaining activity at 25 µM: 293T cells; for remaining activity at 25 µM: DMSO-normalized, curve-fitted percentage of WIZ-HiBit remaining at 25 uM; for DC50: WIZ HiBit assay in 293T cells, 10-point, 5-fold dose response, highest concentration 25 μM, about 18 hours, read-out: WIZ AC50
How it was run: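 HiBit-tagged WIZ (N-terminal tag, HSVTK promoter) stably expressed single-copy in 293T cells; 10-point 1:5 compound series, top 25 μM, ~18 h at 37 °C. Lytic HiBit/LgBit luminescence read; Amax = curve-fitted % WIZ-HiBit remaining at 25 μM, DMSO normalized to 100%.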

[1] = HEK-293T, read-out: % degradation of WIZ (100 − Amax)

T1 sequence (O95785 whole entry, the tested form may be a part): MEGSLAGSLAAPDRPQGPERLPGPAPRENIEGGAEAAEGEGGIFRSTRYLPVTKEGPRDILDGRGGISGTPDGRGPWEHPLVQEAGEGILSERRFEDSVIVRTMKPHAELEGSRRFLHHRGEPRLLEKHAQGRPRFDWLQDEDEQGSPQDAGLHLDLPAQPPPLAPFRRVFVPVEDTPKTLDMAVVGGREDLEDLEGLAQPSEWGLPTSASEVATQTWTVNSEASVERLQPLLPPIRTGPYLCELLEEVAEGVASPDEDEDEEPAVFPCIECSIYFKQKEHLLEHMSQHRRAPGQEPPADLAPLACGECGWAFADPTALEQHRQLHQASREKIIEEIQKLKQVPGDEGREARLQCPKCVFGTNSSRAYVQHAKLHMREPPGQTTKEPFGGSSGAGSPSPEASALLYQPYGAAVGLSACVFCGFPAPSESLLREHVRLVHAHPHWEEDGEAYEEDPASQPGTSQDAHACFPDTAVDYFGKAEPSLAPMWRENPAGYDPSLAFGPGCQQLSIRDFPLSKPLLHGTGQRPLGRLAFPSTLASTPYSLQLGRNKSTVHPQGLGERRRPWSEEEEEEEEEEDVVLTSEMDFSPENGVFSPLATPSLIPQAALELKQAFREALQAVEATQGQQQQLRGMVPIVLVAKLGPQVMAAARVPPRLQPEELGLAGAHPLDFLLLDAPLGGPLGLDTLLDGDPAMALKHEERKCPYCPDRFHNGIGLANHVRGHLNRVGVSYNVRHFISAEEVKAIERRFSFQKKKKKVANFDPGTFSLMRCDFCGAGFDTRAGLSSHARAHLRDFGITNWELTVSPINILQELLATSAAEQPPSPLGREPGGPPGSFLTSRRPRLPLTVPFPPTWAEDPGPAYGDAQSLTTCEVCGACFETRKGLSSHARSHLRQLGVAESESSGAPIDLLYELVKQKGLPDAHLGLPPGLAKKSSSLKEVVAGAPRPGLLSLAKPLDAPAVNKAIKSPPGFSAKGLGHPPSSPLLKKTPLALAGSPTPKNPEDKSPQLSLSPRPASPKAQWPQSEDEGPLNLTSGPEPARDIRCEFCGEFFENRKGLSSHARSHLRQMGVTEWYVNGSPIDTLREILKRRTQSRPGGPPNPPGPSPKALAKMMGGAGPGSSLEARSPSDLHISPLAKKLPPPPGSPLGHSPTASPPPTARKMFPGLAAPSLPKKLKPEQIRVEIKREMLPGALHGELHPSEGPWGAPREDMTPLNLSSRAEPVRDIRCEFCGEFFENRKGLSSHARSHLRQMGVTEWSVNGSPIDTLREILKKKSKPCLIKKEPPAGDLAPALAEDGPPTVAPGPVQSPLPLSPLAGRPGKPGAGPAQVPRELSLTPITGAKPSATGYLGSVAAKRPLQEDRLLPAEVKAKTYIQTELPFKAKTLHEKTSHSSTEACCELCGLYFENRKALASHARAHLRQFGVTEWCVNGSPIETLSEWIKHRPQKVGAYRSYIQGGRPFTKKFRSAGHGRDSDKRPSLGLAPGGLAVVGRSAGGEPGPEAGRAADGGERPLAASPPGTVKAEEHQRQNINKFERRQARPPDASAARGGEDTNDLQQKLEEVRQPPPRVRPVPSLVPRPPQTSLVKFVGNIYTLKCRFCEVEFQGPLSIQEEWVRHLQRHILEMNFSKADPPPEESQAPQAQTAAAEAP
T1 sequence (Q96SW2 whole entry, the tested form may be a part): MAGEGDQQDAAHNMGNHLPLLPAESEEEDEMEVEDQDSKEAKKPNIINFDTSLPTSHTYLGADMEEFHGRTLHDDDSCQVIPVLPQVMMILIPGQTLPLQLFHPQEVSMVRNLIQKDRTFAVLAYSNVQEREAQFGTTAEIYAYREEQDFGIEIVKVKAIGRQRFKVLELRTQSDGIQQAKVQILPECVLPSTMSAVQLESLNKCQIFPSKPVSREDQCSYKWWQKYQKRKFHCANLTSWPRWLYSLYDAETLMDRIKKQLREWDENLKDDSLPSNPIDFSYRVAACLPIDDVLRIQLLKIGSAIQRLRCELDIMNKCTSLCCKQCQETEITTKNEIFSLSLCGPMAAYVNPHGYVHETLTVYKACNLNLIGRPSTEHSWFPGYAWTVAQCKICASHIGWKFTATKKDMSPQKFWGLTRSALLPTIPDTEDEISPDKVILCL
T1 sequence (Q16531 whole entry partner, the tested form may be a part): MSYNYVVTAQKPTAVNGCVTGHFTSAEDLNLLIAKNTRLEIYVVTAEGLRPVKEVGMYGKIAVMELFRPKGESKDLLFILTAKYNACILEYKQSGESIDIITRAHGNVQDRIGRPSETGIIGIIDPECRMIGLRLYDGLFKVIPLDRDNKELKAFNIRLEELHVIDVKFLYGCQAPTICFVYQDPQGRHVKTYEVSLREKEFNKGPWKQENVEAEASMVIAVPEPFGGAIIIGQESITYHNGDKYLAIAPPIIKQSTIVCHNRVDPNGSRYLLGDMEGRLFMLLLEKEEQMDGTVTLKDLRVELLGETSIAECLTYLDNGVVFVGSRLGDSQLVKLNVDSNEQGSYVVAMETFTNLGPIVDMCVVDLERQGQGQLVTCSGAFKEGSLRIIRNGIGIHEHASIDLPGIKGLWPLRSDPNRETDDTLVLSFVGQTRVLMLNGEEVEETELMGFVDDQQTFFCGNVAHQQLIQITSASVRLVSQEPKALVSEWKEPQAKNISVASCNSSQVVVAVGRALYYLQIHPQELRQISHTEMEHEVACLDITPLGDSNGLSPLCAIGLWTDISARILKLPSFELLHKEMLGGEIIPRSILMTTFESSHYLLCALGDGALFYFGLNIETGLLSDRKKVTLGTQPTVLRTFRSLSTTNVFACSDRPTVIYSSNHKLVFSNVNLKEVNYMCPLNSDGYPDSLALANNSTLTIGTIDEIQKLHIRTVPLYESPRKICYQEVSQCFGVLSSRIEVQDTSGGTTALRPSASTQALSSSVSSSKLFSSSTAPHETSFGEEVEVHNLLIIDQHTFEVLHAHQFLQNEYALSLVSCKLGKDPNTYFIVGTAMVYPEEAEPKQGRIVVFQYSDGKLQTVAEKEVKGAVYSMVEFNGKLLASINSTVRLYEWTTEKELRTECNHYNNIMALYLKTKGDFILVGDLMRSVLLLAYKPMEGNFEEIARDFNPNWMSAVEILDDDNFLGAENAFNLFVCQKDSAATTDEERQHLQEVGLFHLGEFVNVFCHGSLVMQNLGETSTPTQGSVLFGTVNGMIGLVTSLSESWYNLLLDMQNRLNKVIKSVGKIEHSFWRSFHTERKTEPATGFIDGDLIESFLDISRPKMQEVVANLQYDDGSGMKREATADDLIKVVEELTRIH

Row | SMILES | Dmax at 25 µM [1] | remaining activity at 25 µM (HEK-293T, read-out: WIZ Amax) | DC50 | Dmax [1] | remaining activity (HEK-293T, read-out: WIZ Amax)
1 | O=C1CCN(c2cnn3ccc(CC4CCN(S(=O)(=O)Cc5ccccc5)CC4)cc23)C(=O)N1 [Example 88] | 78% | 22% | 181 nM |  | 
2 | CC(C)(C)OC(=O)N1CCCC(Cc2ccn3ncc(N4CCC(=O)NC4=O)c3c2)CC1 (stereo not drawn) [Example 270, tert-butyl 4-((3-(2,4-dioxotetrahydropyrimidin-1(2H)-yl)pyrazolo[1,5-a]pyridin-5-yl)methyl)azepane-1-carboxylate] | 57% | 43% | 99 nM |  | 
3 | O=C1CCN(c2cnn3ccc(CN4CCN(CC5CCCCCC5)CC4)cc23)C(=O)N1 [Example 158] | 82% | 18% | 25 nM |  | 
4 | C[C@@H]1CN(Cc2ccn3ncc(N4CCC(=O)NC4=O)c3c2)CCN1Cc1cccnc1 [Example 215] | 19% | 81% | 2620 nM |  | 
5 | C[C@H]1CN(Cc2ccn3ncc(N4CCC(=O)NC4=O)c3c2)CCN1CC1CCCCC1 [Example 192, (S)-1-(5-((4-(cyclohexylmethyl)-3-methylpiperazin-1-yl)methyl)pyrazolo[1,5-a]pyridin-3-yl)dihydropyrimidine-2,4(1H,3H)-dione] | 86% | 14% | 19 nM |  | 
6 | COc1cn(-c2cnn3ccc(C[C@@H]4CCN(CC5CCC(F)(F)CC5)[C@@H](C)C4)cc23)c(=O)[nH]c1=O [Example 353, 1-(5-(((2S,4R)-1-((4,4-difluorocyclohexyl)methyl)-2-methylpiperidin-4-yl)methyl)pyrazolo[1,5-a]pyridin-3-yl)-5-methoxypyrimidine-2,4(1H,3H)-dione] | 70% | 30% | 9100 nM |  | 
7 | CC(C)C(=O)N1CC[C@@H](Cc2ccn3ncc(N4CCC(=O)NC4=O)c3c2)C[C@@H]1C [Example 288] | 80% | 20% | 8 nM |  | 
8 | O=C1CCN(c2cnn3ccc(CC4CCN(Cc5cc(F)cc(C(F)(F)F)c5)CC4)cc23)C(=O)N1 [Example 51, 1-(5-((1-(3-fluoro-5-(trifluoromethyl)benzyl)piperidin-4-yl)methyl)pyrazolo[1,5-a]pyridin-3-yl)dihydropyrimidine-2,4(1H,3H)-dione] | 66% | 34% | 39 nM |  | 
9 | CC(C)CN1CCN(Cc2ccn3ncc(N4CCC(=O)NC4=O)c3c2)C(=O)C1 [Example 254, 1-(5-((4-isobutyl-2-oxopiperazin-1-yl)methyl)pyrazolo[1,5-a]pyridin-3-yl)dihydropyrimidine-2,4(1H,3H)-dione] | 0% | 100% | > 25000 nM |  | 
10 | CC(C)CN1CCN(Cc2ccn3ncc(N4CCC(=O)NC4=O)c3c2)C[C@@H]1C(F)F [Example 247, (R)-1-(5-((3-(difluoromethyl)-4-isobutylpiperazin-1-yl)methyl)pyrazolo[1,5-a]pyridin-3-yl)dihydropyrimidine-2,4(1H,3H)-dione] | 15% | 85% | 1370 nM |  | 
11 | CC(C)COC(=O)N1CCC(Cc2ccn3ncc(N4CCC(=O)NC4=O)c3c2)CC1 [Example 95] | 43% | 57% | > 25000 nM |  | 
12 | C[C@@H]1CC(CN2CCN(Cc3ccn4ncc(N5CCC(=O)NC5=O)c4c3)C[C@@H]2C)C[C@H](C)O1 (stereo partly drawn) [Example 199, 1-(5-(((3S)-4-(((2R,6S)-2,6-dimethyltetrahydro-2H-pyran-4-yl)methyl)-3-methylpiperazin-1-yl)methyl)pyrazolo[1,5-a]pyridin-3-yl)dihydropyrimidine-2,4(1H,3H)-dione] | 86% | 14% | 9 nM |  | 
13 | C[C@H]1C[C@H](Cc2ccn3ncc(N4CCC(=O)NC4=O)c3c2)CCN1CC1CCC(C)(C)CC1 [Example 149] | 90% | 10% | 0.4 nM |  | 
14 | CC(C)CN1CC[C@@H](Cc2ccn3ncc(N4CCC(=O)NC4=O)c3c2)C[C@H]1C [Example 77] | 68% | 32% | 77 nM |  | 
15 | O=C1CCN(c2cnn3ccc(CC4CCN(C[C@H]5CC[C@H](O)CC5)CC4)cc23)C(=O)N1 [Example 151, 1-(5-((1-(((1r,4r)-4-hydroxycyclohexyl)methyl)piperidin-4-yl)methyl)pyrazolo[1,5-a]pyridin-3-yl)dihydropyrimidine-2,4(1H,3H)-dione] | 86% | 14% | 270 nM |  | 
16 | Cc1c(F)cccc1CN1CCC(Cc2ccn3ncc(N4CCC(=O)NC4=O)c3c2)CC1 [Example 42, 1-(5-((1-(3-fluoro-2-methylbenzyl)piperidin-4-yl)methyl)pyrazolo[1,5-a]pyridin-3-yl)dihydropyrimidine-2,4(1H,3H)-dione] | 70% | 30% | 26 nM |  | 
17 | C[C@H]1C[C@H](Cc2ccn3ncc(N4CCC(=O)NC4=O)c3c2)CCN1C1COC1 [Example 279, 1-(5-(((2S,4R)-2-methyl-1-(oxetan-3-yl)piperidin-4-yl)methyl)pyrazolo[1,5-a]pyridin-3-yl)dihydropyrimidine-2,4(1H,3H)-dione] | 91% | 9% | 26 nM |  | 
18 | CC(C)CN1CCC(Cc2ccn3ncc(N4CCC(=O)NC4=O)c3c2)CC1(C)C (stereo not drawn) [Example 79, 1-(5-((1-isobutyl-2,2-dimethylpiperidin-4-yl)methyl)pyrazolo[1,5-a]pyridin-3-yl)dihydropyrimidine-2,4(1H,3H)-dione] | 65% | 35% | 65 nM |  | 
19 | O=C1CCN(c2cnn3ccc(CC4CCN(C(=O)CCC5CCCCC5)CC4)cc23)C(=O)N1 [Example 103] | 28% | 72% | 82 nM |  | 
20 | C[C@H]1CN(Cc2ccn3ncc(N4CCC(=O)NC4=O)c3c2)CCN1C1COC1 [Example 331] | 76% | 24% | 73 nM |  | 
21 | Cc1cccc(CN2CCN(Cc3ccn4ncc(N5CCC(=O)NC5=O)c4c3)CC2)c1 [Example 190, 1-(5-((4-(3-methylbenzyl)piperazin-1-yl)methyl)pyrazolo[1,5-a]pyridin-3-yl)dihydropyrimidine-2,4(1H,3H)-dione] | 54% | 46% | 86 nM |  | 
22 | C[C@H]1C[C@H](Cc2ccn3ncc(N4CCC(=O)NC4=O)c3c2)CCN1C[C@H]1C[C@@H](F)[C@@H](F)C1 [Example 304, 1-(5-(((2S,4R)-1-(((1r,3R,4S)-3,4-difluorocyclopentyl)methyl)-2-methylpiperidin-4-yl)methyl)pyrazolo[1,5-a]pyridin-3-yl)dihydropyrimidine-2,4(1H,3H)-dione] | 87% | 13% | 2 nM |  | 
23 | CCC(C)CN1CCC(Cc2ccn3ncc(N4CCC(=O)NC4=O)c3c2)CC1 (stereo not drawn) [Example 9, 1-(5-((1-(2-methylbutyl)piperidin-4-yl)methyl)pyrazolo[1,5-a]pyridin-3-yl)dihydropyrimidine-2,4(1H,3H)-dione] | 84% | 16% | 31 nM |  | 
24 | O=C1CCN(c2cnn3ccc(CC4CCN(S(=O)(=O)CC5CC5)CC4)cc23)C(=O)N1 [Example 84] | 87% | 13% | 55 nM |  | 
25 | C[C@H]1C[C@H](Cc2ccn3ncc(N4CCC(=O)NC4=O)c3c2)CCN1CCC(F)(F)F [Example 276, 1-(5-(((2S,4R)-2-methyl-1-(3,3,3-trifluoropropyl)piperidin-4-yl)methyl)pyrazolo[1,5-a]pyridin-3-yl)dihydropyrimidine-2,4(1H,3H)-dione] | 84% | 15% | 9 nM |  | 
26 | C[C@H]1CN(Cc2ccn3ncc(N4CCC(=O)NC4=O)c3c2)CCN1C(=O)C1CCCCC1 [Example 342, (S)-1-(5-((4-(cyclohexanecarbonyl)-3-methylpiperazin-1-yl)methyl)pyrazolo[1,5-a]pyridin-3-yl)dihydropyrimidine-2,4(1H,3H)-dione] | 37% | 63% | 916 nM |  | 
27 | C[C@H]1CN(Cc2ccn3ncc(N4CCC(=O)NC4=O)c3c2)CCN1C1CCC1 [Example 329, (S)-1-(5-((4-cyclobutyl-3-methylpiperazin-1-yl)methyl)pyrazolo[1,5-a]pyridin-3-yl)dihydropyrimidine-2,4(1H,3H)-dione] |  |  | 166 nM | 83% | 17%
28 | C[C@H]1CN(Cc2ccn3ncc(N4CCC(=O)NC4=O)c3c2)CCN1C(=O)C1CC1 [Example 340, (S)-1-(5-((4-(cyclopropanecarbonyl)-3-methylpiperazin-1-yl)methyl)pyrazolo[1,5-a]pyridin-3-yl)dihydropyrimidine-2,4(1H,3H)-dione] | 32% | 68% | 862 nM |  | 
29 | O=C1CCN(c2cnn3ccc(CC4CCN(Cc5ccc(F)c(F)c5)CC4)cc23)C(=O)N1 [Example 45, 1-(5-((1-(3,4-difluorobenzyl)piperidin-4-yl)methyl)pyrazolo[1,5-a]pyridin-3-yl)dihydropyrimidine-2,4(1H,3H)-dione] | 70% | 30% | 23 nM |  | 
30 | C[C@H]1CC(F)(Cc2ccn3ncc(N4CCC(=O)NC4=O)c3c2)CCN1CC1CCC(F)(F)CC1 (single isomer, unassigned) [Example 308] | 77% | 23% | 44 nM |  | 
